Key:
[1] = target: Mitogen-activated protein kinase kinase kinase kinase 5 (Homo sapiens) (UniProt Q9Y4K4); test: Inhibition of DNA-tagged human MAP4K5 assessed as percent of control at 50000 nM by qPCR analysis relative to control; set-up: scale not given: the % may be the effect or the level left
[2] = system: Mast/stem cell growth factor receptor Kit (Homo sapiens), P10721 [V559D,V654A]; test: Inhibition of DNA-tagged human KIT V559D/V654A double mutant assessed as percent of control at 50000 nM by qPCR analysis relative to control; set-up: scale not given: the % may be the effect or the level left
Chain of Mast/stem cell growth factor receptor Kit (Homo sapiens), P10721 [V559D,V654A] (P10721 whole entry V559D/V654A): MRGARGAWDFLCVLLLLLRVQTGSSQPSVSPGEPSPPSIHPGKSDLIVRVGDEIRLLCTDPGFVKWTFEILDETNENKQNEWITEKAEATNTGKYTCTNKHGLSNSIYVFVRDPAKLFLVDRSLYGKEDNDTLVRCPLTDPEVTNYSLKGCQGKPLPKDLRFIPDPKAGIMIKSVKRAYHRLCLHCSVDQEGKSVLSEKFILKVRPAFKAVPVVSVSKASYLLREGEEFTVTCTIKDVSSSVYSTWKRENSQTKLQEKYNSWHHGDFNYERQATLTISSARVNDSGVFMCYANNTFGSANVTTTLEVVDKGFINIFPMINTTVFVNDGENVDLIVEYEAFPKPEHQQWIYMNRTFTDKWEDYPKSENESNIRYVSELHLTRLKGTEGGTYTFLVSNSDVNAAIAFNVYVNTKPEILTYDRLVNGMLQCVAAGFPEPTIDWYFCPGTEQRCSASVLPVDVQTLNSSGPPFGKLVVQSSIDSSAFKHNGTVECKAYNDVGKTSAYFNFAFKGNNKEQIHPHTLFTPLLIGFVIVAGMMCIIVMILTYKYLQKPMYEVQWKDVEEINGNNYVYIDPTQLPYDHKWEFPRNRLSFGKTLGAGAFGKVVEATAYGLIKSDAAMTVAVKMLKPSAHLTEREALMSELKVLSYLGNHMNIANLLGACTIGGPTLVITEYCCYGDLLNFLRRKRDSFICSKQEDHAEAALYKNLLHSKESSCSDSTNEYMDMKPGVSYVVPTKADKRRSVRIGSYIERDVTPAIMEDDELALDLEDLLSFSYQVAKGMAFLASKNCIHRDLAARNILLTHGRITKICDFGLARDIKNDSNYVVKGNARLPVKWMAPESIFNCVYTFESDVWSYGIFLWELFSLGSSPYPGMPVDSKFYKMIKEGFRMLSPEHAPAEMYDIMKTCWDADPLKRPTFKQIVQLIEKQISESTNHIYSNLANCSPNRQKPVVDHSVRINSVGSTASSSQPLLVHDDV

Chain of Mitogen-activated protein kinase kinase kinase kinase 5 (Homo sapiens) (Q9Y4K4 whole entry, looked up): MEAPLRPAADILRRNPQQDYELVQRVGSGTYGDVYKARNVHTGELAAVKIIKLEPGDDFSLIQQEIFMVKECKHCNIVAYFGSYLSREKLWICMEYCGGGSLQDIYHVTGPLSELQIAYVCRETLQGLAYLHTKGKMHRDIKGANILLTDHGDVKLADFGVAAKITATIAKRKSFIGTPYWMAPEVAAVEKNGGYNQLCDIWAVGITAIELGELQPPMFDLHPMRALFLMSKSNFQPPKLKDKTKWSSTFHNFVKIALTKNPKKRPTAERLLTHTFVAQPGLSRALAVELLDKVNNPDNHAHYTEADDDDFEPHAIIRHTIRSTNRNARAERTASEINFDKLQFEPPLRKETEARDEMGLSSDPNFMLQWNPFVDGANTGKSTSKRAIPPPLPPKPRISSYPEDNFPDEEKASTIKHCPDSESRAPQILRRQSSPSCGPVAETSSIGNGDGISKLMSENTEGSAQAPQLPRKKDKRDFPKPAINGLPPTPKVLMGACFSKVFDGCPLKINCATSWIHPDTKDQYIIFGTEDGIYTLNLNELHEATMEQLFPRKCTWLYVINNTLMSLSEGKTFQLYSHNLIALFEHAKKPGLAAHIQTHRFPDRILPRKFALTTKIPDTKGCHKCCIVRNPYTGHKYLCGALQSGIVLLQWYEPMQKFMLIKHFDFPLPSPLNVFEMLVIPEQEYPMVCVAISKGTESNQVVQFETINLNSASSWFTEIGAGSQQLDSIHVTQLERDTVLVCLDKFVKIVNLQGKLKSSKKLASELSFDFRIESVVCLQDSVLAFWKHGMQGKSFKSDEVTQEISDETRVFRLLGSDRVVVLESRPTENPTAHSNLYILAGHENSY

Molecule `CN1C(=O)/C(=C2/C(=O)Nc3ccccc32)c2ccccc21` has an Activity [1] of 100% and an Activity [2] of 100%.
